Laboratory results published in PubChem BioAssay (NCI).
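The concentration for 50% growth inhibition is given as GI50. The concentration for full growth arrest is given as TGI.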

Assays:
Assay in all cases: growth of human tumour cells (NCI), 384-well format
SK-OV-3 ovarian = tested on: SK-OV-3 ovarian
HOP-62 NSCLC = tested on: HOP-62 NSCLC
MALME-3M melanoma = tested on: MALME-3M melanoma
UO-31 renal = tested on: UO-31 renal
HCT-15 colon = tested on: HCT-15 colon
MOLT-4 leukemia = tested on: MOLT-4 leukemia
HL-60(TB) leukemia = tested on: HL-60(TB) leukemia
OVCAR-4 ovarian = tested on: OVCAR-4 ovarian
PC-3 prostate = tested on: PC-3 prostate
SK-MEL-5 melanoma = tested on: SK-MEL-5 melanoma
UACC-257 melanoma = tested on: UACC-257 melanoma
HCT-116 colon = tested on: HCT-116 colon
KM12 colon = tested on: KM12 colon
MDA-MB-468 breast = tested on: MDA-MB-468 breast
LOX IMVI melanoma = tested on: LOX IMVI melanoma
MCF7 breast = tested on: MCF7 breast
COLO 205 colon = tested on: COLO 205 colon
OVCAR-3 ovarian = tested on: OVCAR-3 ovarian
HT29 colon = tested on: HT29 colon
SN12C renal = tested on: SN12C renal
NCI-H23 lung = tested on: NCI-H23 lung
SW-620 colon = tested on: SW-620 colon
OVCAR-5 ovarian = tested on: OVCAR-5 ovarian
K-562 leukemia = tested on: K-562 leukemia
786-0 renal = tested on: 786-0 renal
NCI-H522 lung = tested on: NCI-H522 lung
BT-549 breast = tested on: BT-549 breast
MDA-MB-231 breast = tested on: MDA-MB-231 breast
SR leukemia = tested on: SR leukemia
CCRF-CEM leukemia = tested on: CCRF-CEM leukemia
SK-MEL-2 melanoma = tested on: SK-MEL-2 melanoma
SF-268 CNS = tested on: SF-268 CNS
A498 renal = tested on: A498 renal
IGROV1 ovarian = tested on: IGROV1 ovarian
U251 glioblastoma = tested on: U251 glioblastoma
ACHN renal = tested on: ACHN renal
SF-295 CNS = tested on: SF-295 CNS
T-47D breast = tested on: T-47D breast
TK-10 renal = tested on: TK-10 renal
M14 melanoma = tested on: M14 melanoma
RPMI-8226 leukemia = tested on: RPMI-8226 leukemia
A549 NSCLC = tested on: A549 NSCLC
RXF 393 renal = tested on: RXF 393 renal
HOP-92 NSCLC = tested on: HOP-92 NSCLC
NCI-H322M lung = tested on: NCI-H322M lung
OVCAR-8 ovarian = tested on: OVCAR-8 ovarian
CAKI-1 renal = tested on: CAKI-1 renal
UACC-62 melanoma = tested on: UACC-62 melanoma
SF-539 CNS = tested on: SF-539 CNS
MDA-MB-435 melanoma = tested on: MDA-MB-435 melanoma
NCI-H460 NSCLC = tested on: NCI-H460 NSCLC
NCI-H226 lung = tested on: NCI-H226 lung
SNB-19 CNS = tested on: SNB-19 CNS
SK-MEL-28 melanoma = tested on: SK-MEL-28 melanoma
NCI/ADR-RES ovarian = tested on: NCI/ADR-RES ovarian
HCC-2998 colon = tested on: HCC-2998 colon
DU-145 prostate = tested on: DU-145 prostate

## Cc1c(-c2ccc(N3CCc4cccc(C(=O)Nc5nc6ccccc6s5)c4C3)nc2C(=O)O)cnn1CC12CC3CC(CC(C3)C1)C2
SK-OV-3 ovarian
  GI50: 6.03 µM
  TGI: 18.7 µM
HOP-62 NSCLC
  GI50: 15.3 µM
  TGI: 28.7 µM
MALME-3M melanoma
  GI50: 11.6 µM
  TGI: 23.8 µM
UO-31 renal
  GI50: 1.14 µM
  TGI: 12 µM
HCT-15 colon
  GI50: 4.28 µM
  TGI: 16.6 µM
MOLT-4 leukemia
  GI50: < 0.01 µM
  TGI: < 0.01 µM
HL-60(TB) leukemia
  GI50: 2.53 µM
  TGI: 5.94 µM
OVCAR-4 ovarian
  GI50: 0.0115 µM
  TGI: 13.2 µM
PC-3 prostate
  GI50: 4.89 µM
  TGI: 17.4 µM
SK-MEL-5 melanoma
  GI50: 12.8 µM
  TGI: 25.4 µM
UACC-257 melanoma
  GI50: 9.83 µM
  TGI: 21.5 µM
HCT-116 colon
  GI50: 3.88 µM
  TGI: 16.9 µM
KM12 colon
  GI50: 11.2 µM
  TGI: 23.2 µM
MDA-MB-468 breast
  GI50: 1.7 µM
  TGI: 7.04 µM
LOX IMVI melanoma
  GI50: 6.46 µM
  TGI: 18.6 µM
MCF7 breast
  GI50: 14.2 µM
  TGI: 27.2 µM
COLO 205 colon
  GI50: 0.272 µM
  TGI: 1.73 µM
OVCAR-3 ovarian
  GI50: 4.03 µM
  TGI: 18.1 µM
HT29 colon
  GI50: 12.9 µM
  TGI: 25.6 µM
SN12C renal
  GI50: 13.5 µM
  TGI: 26.4 µM
NCI-H23 lung
  GI50: 8.42 µM
  TGI: 20.9 µM
SW-620 colon
  GI50: 12.4 µM
  TGI: 24.8 µM
OVCAR-5 ovarian
  GI50: 0.351 µM
  TGI: 12.5 µM
K-562 leukemia
  GI50: 10.8 µM
  TGI: 22.8 µM
786-0 renal
  GI50: 3.65 µM
  TGI: 15.5 µM
NCI-H522 lung
  GI50: 3.66 µM
  TGI: 17.6 µM
BT-549 breast
  GI50: 9.65 µM
  TGI: 21.4 µM
MDA-MB-231 breast
  GI50: < 0.01 µM
  TGI: 0.186 µM
SR leukemia
  GI50: 0.0191 µM
  TGI: 2.47 µM
CCRF-CEM leukemia
  GI50: < 0.01 µM
  TGI: 0.0112 µM
SK-MEL-2 melanoma
  GI50: < 0.01 µM
  TGI: 2.67 µM
SF-268 CNS
  GI50: 15.2 µM
  TGI: 28.5 µM
A498 renal
  GI50: 0.0911 µM
  TGI: 2.39 µM
IGROV1 ovarian
  GI50: 1.67 µM
  TGI: 4 µM
U251 glioblastoma
  GI50: 11.6 µM
  TGI: 23.9 µM
ACHN renal
  GI50: 11.6 µM
  TGI: 23.8 µM
SF-295 CNS
  GI50: 3.63 µM
  TGI: 15.2 µM
T-47D breast
  GI50: 10.6 µM
  TGI: 22.4 µM
TK-10 renal
  GI50: 2.48 µM
  TGI: 16 µM
M14 melanoma
  GI50: 16 µM
  TGI: 29.5 µM
RPMI-8226 leukemia
  GI50: < 0.01 µM
  TGI: < 0.01 µM
A549 NSCLC
  GI50: 8.57 µM
  TGI: 21 µM
RXF 393 renal
  GI50: < 0.01 µM
  TGI: 0.0108 µM
HOP-92 NSCLC
  GI50: < 0.01 µM
  TGI: 0.0174 µM
NCI-H322M lung
  GI50: 7.97 µM
  TGI: 21 µM
OVCAR-8 ovarian
  GI50: 11.8 µM
  TGI: 24.1 µM
CAKI-1 renal
  GI50: 13.8 µM
  TGI: 26.8 µM
UACC-62 melanoma
  GI50: 13.6 µM
  TGI: 26.4 µM
SF-539 CNS
  GI50: 14.6 µM
  TGI: 27.8 µM
MDA-MB-435 melanoma
  GI50: 2.47 µM
  TGI: 14 µM
NCI-H460 NSCLC
  GI50: 17.1 µM
  TGI: 30.8 µM
NCI-H226 lung
  GI50: 1 µM
  TGI: 11.5 µM
SNB-19 CNS
  GI50: 10 µM
  TGI: 21.6 µM
SK-MEL-28 melanoma
  GI50: 4.35 µM
  TGI: 16.3 µM
NCI/ADR-RES ovarian
  GI50: 13.5 µM
  TGI: 26.4 µM
HCC-2998 colon
  GI50: < 0.01 µM
  TGI: 0.0661 µM
DU-145 prostate
  GI50: 16.7 µM
  TGI: 30.4 µM
